Consider 1 compound from article PMC6222847, “Application of HPCCC Combined with Polymeric Resins and HPLC for the Separation of Cyclic Lipopeptides Muscotoxins A–C and Their Antimicrobial Activity” (Molecules : A Journal of Synthetic Chemistry and Natural …, 2018).

Each structure is given as a SMILES string. *1 amine or outer side, *2 acyl side, *3 side chain or, on linkers, in order; H or OH if unused. Where a SMILES comes first, the peptide text is derived from it. [ ]: non-standard residue; d: D form. X1 = CCCCCC(O)CC(N[*:1])C(O)C(=O)[*:2]; d(aIle) = CC[C@H](C)[C@@H](N)C(=O)O; Dhb = C/C=C(\N)C(=O)O

The data set in a line: Partition coefficient (K) in two-phase HPCCC solvent systems. It counts as physicochemical. The settings on record: 2 mg extract in 2 mL (1 mL per phase), HPLC-ESI-HRMS. From the text: When working with HPCCC, the search for a proper two-phase solvent system has been informed to represent the major part of the work involved in the HPCCC separation. An appropriate two-phase solvent system for HPCCC has to provide a good partition coefficient (0.5 ≤ K ≤ 2.5) for the target compound. […] Additionally, for achieving a good resolution between two closely eluting peaks, the separation factor (α) between the two compounds (α = K2/K1, K2 > K1) should be greater than 1.5 [14, 26]. It is well described that compounds with smaller K values show a poor resolution because they elute closer to the solvent front. On the contrary, those compounds with larger K value are better separated but elute as wider peaks and at later elution times. In the present study, the capacity of different two-phase solvent systems (Table 1) to provide suitable K values of the compounds 1–3 was investigated. The K value is frequently estimated by using HPLC with UV detection, which is calculated by dividing the peak area of the target compound in the upper phase by that of the peak area of the same target compound in the lower phase. However, given that UV chromatogram provided insufficient peak areas for minor muscotoxins, the MS detector was thus used to estimate the K values. By using this approach, the peak area of the molecular ions corresponding to the target compounds were selectively monitored from the base peak chromatogram. As presented in the Table 1, the solvent system 10 (n-hexane, ethyl acetate, ethanol, and water in a ratio of 1:5:1:5) gave suitable K values and a proper separation factor (α) for compounds 2 and 3, as well as a short settling time. […] The improvement of the K value of compound 1 could be achieved by finding out a new solvent system or by modifying the composition of the already selected solvent system. In the present study, the system 10 was acidified by adding acetic acid leading to the system 11 (n-hexane, ethyl acetate, ethanol, water, and acetic acid, 1:5:1:5:1). […] Although the partition coefficients of the target compounds in systems 10 and 11 are strongly correlated, the system 10 ensured a sufficient selectivity (α = 1.5) between the compounds 2 and 3. […] In HPCCC, it is very well established that when the retention of stationary phase is increased, a good chromatographic resolution is achieved. A reduced flow rate of the mobile phase and a high rotational speed of the column favor the retention of the stationary phase inside the HPCCC column. In this study, the flow rate of the mobile phase in the first step and second step of the HPCCC operations was 1 mL/min and the rotational speed was set at 1200 rpm. Moreover, it was observed that a good resolution between the compounds 2 and 3 was achieved when injecting 100 mg of enriched extract.
Different two-phase solvent systems were prepared using n-hexane, ethyl acetate, ethanol, water, and acetic acid in different proportions (Table 1). The prepared solvent systems were investigated for their capacity to provide suitable partition coefficients (K) of the target compounds. In addition, given that the settling time as well as the density difference between the upper and lower phases of each two-phase solvent system are parameters associated with the retention of stationary phase in the column, they were thus estimated and used as selection criteria. For estimating the partition coefficient (Table 1) of the target compound, 2 mg of extract containing the target compounds was dissolved in 2 mL of a given two-phase solvent system (1 mL per each phase). The test tube containing the sample solution was shaken vigorously, and then left, to equilibrate the two phases, for 20 min. Equal volumes of each phase were then analyzed by HPLC-ESI-HRMS to obtain the partition coefficients (K), which were calculated by dividing the peak area of the target compound in the upper phase by the peak area of compound in the lower phase.

For the compound `C/C=C1\NC(=O)[C@H](CO)NC(=O)[C@@H]([C@@H](C)CC)NC(=O)[C@H](Cc2ccccc2)NC(=O)[C@@H]2CCCN2C(=O)CNC(=O)[C@@H](CCC(N)=O)NC(=O)C(O)C(CC(O)CCCCC)NC(=O)[C@@H]2CCCN2C(=O)[C@@H]([C@@H](C)CC)NC(=O)[C@H](CO)NC1=O` (some centres unmarked) [compound 2, muscotoxin A] (cyclo([Dhb]S[d(aIle)]P[X1][dQ]GPF[d(aIle)]S)), the “Partition Coefficient (K) of Muscotoxins” value (solvent system 1, n-Hex–EtOH–H2O 10:5:5, shake test tube, equilibrated 20 min, K = peak area upper phase/lower phase) is 0.03; the “Partition Coefficient (K) of Muscotoxins” value (solvent system 2, n-Hex–EtOAc–EtOH–H2O 9:1:5:5, shaken, 20 min, K = peak area UP/LP) was found to be 0.03; the “Partition Coefficient (K) of Muscotoxins” value (solvent system 3, n-Hex–EtOAc–EtOH–H2O 8:2:5:5, shaken, 20 min, K = peak area UP/LP) is on record as 0.01; the “Partition Coefficient (K) of Muscotoxins” value (solvent system 4, n-Hex–EtOAc–EtOH–H2O 7:3:5:5, shaken, 20 min, K = peak area UP/LP) stood at 0.06; the “Partition Coefficient (K) of Muscotoxins” value (solvent system 5, n-Hex–EtOAc–EtOH–H2O 6:4:5:5, shaken, 20 min, K = peak area UP/LP) is given as 0.09; the “Partition Coefficient (K) of Muscotoxins” value (solvent system 6, n-Hex–EtOAc–EtOH–H2O 5:5:5:5, shaken, 20 min, K = peak area UP/LP) is recorded as 0.01. In addition, the “Partition Coefficient (K) of Muscotoxins” value runs as follows: (solvent system 7, n-Hex–EtOAc–EtOH–H2O 4:5:4:5, shaken, 20 min, K = peak area UP/LP) 0.14; (solvent system 8, n-Hex–EtOAc–EtOH–H2O 3:5:3:5, shaken, 20 min, K = peak area UP/LP) 0.32; (solvent system 9, n-Hex–EtOAc–EtOH–H2O 2:5:2:5, shaken, 20 min, K = peak area UP/LP) 0.97; (solvent system 10, n-Hex–EtOAc–EtOH–H2O 1:5:1:5, shaken, 20 min, K = peak area UP/LP) 0.94; (solvent system 11, n-Hex–EtOAc–EtOH–H2O–AcOH 1:5:1:5:1, shaken, 20 min, K = peak area UP/LP) 1.97.
